Measurements taken from PubChem BioAssay (NCI).
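Each compound was tested at five concentrations against cells in 96-well plates for 48 hours. GI50: concentration for 50% inhibition of growth. TGI: concentration producing complete growth inhibition.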

Key:
Test in all cases: NCI tumour cell line growth inhibition, 48 h
CAKI-1 renal = system: CAKI-1 renal
SK-OV-3 ovarian = system: SK-OV-3 ovarian
CCRF-CEM leukemia = system: CCRF-CEM leukemia
EKVX NSCLC = system: EKVX NSCLC
UACC-257 melanoma = system: UACC-257 melanoma
HS 578T breast = system: HS 578T breast
NCI-H226 lung = system: NCI-H226 lung
HOP-62 NSCLC = system: HOP-62 NSCLC
SF-295 CNS = system: SF-295 CNS
SK-MEL-28 melanoma = system: SK-MEL-28 melanoma
M14 melanoma = system: M14 melanoma
TK-10 renal = system: TK-10 renal
KM12 colon = system: KM12 colon
SR leukemia = system: SR leukemia
HCT-116 colon = system: HCT-116 colon
MDA-MB-435 = system: MDA-MB-435
SNB-75 CNS = system: SNB-75 CNS
NCI-H460 lung = system: NCI-H460 lung
MOLT-4 leukemia = system: MOLT-4 leukemia
HOP-92 NSCLC = system: HOP-92 NSCLC
HL-60(TB) leukemia = system: HL-60(TB) leukemia
SK-MEL-5 melanoma = system: SK-MEL-5 melanoma
A549 NSCLC = system: A549 NSCLC
RPMI-8226 leukemia = system: RPMI-8226 leukemia
UO-31 renal = system: UO-31 renal
HCC-2998 colon = system: HCC-2998 colon
LOX IMVI melanoma = system: LOX IMVI melanoma
SW-620 colon = system: SW-620 colon
T-47D breast = system: T-47D breast
K-562 leukemia = system: K-562 leukemia
RXF 393 renal = system: RXF 393 renal
COLO 205 colon = system: COLO 205 colon
786-0 renal = system: 786-0 renal
SF-539 CNS = system: SF-539 CNS
MDA-MB-231 breast = system: MDA-MB-231 breast
HT29 colon = system: HT29 colon
U251 CNS = system: U251 CNS
UACC-62 melanoma = system: UACC-62 melanoma
IGROV1 ovarian = system: IGROV1 ovarian
NCI-H23 lung = system: NCI-H23 lung
SN12C renal = system: SN12C renal
OVCAR-3 ovarian = system: OVCAR-3 ovarian
OVCAR-4 ovarian = system: OVCAR-4 ovarian
MCF7 breast = system: MCF7 breast
ACHN renal = system: ACHN renal
SF-268 CNS = system: SF-268 CNS
DU-145 prostate = system: DU-145 prostate
HCT-15 colon = system: HCT-15 colon
A498 renal = system: A498 renal
NCI-H522 lung = system: NCI-H522 lung
PC-3 prostate = system: PC-3 prostate
NCI/ADR-RES ovarian = system: NCI/ADR-RES ovarian
SNB-19 CNS = system: SNB-19 CNS
SK-MEL-2 melanoma = system: SK-MEL-2 melanoma
BT-549 breast = system: BT-549 breast
OVCAR-8 ovarian = system: OVCAR-8 ovarian

In the case of `CS(=O)/C(C#N)=C\C=C\c1cccc(Cl)c1` (configuration not stated), the GI50 (CAKI-1 renal) is reported as 2.06 µM, the TGI (CAKI-1 renal) is reported as 13.4 µM and the GI50 (SK-OV-3 ovarian) is reported as 10.6 µM. It also gave a TGI (SK-OV-3 ovarian) of 26.4 µM, a GI50 (CCRF-CEM leukemia) of 2.34 µM and a TGI (CCRF-CEM leukemia) of 18.7 µM. The GI50 (EKVX NSCLC) was 3.66 µM, the TGI (EKVX NSCLC) was 16.7 µM and the GI50 (UACC-257 melanoma) was 2.41 µM. For the same molecule, the TGI (UACC-257 melanoma) was 12.2 µM, the GI50 (HS 578T breast) was 13.1 µM and the TGI (HS 578T breast) was 52.6 µM. For the same molecule, the GI50 (NCI-H226 lung) was 5.02 µM, the TGI (NCI-H226 lung) was 20.3 µM and the GI50 (HOP-62 NSCLC) was 4.56 µM. It also gave a TGI (HOP-62 NSCLC) of 16.2 µM, a GI50 (SF-295 CNS) of 3.05 µM and a TGI (SF-295 CNS) of 10.7 µM. It also gave a GI50 (SK-MEL-28 melanoma) of 2.68 µM, a TGI (SK-MEL-28 melanoma) of 9.78 µM and a GI50 (M14 melanoma) of 2.57 µM. The TGI (M14 melanoma) was 11.2 µM, the GI50 (TK-10 renal) was 5.59 µM and the TGI (TK-10 renal) was 17.5 µM. For the same molecule, the GI50 (KM12 colon) was 1.42 µM, the TGI (KM12 colon) was 4 µM and the GI50 (SR leukemia) was 0.636 µM. The TGI (SR leukemia) was > 100 µM, the GI50 (HCT-116 colon) was 1.12 µM and the TGI (HCT-116 colon) was 4.73 µM. The GI50 (MDA-MB-435) was 2.34 µM, the TGI (MDA-MB-435) was 10.6 µM and the GI50 (SNB-75 CNS) was 7.11 µM. It also gave a TGI (SNB-75 CNS) of 37.4 µM, a GI50 (NCI-H460 lung) of 2.41 µM and a TGI (NCI-H460 lung) of 11.2 µM. It also gave a GI50 (MOLT-4 leukemia) of 2.54 µM, a TGI (MOLT-4 leukemia) of 16.4 µM and a GI50 (HOP-92 NSCLC) of 2.93 µM. It also gave a TGI (HOP-92 NSCLC) of 7 µM, a GI50 (HL-60(TB) leukemia) of 2.38 µM and a TGI (HL-60(TB) leukemia) of 7.61 µM. For the same molecule, the GI50 (SK-MEL-5 melanoma) was 1.87 µM, the TGI (SK-MEL-5 melanoma) was 3.96 µM and the GI50 (A549 NSCLC) was 2.99 µM. For the same molecule, the TGI (A549 NSCLC) was 16.8 µM, the GI50 (RPMI-8226 leukemia) was 2.44 µM and the TGI (RPMI-8226 leukemia) was 12 µM. It also gave a GI50 (UO-31 renal) of 1.97 µM, a TGI (UO-31 renal) of 6.56 µM and a GI50 (HCC-2998 colon) of 1.8 µM. For the same molecule, the TGI (HCC-2998 colon) was 3.3 µM, the GI50 (LOX IMVI melanoma) was 1.31 µM and the TGI (LOX IMVI melanoma) was 2.73 µM. The GI50 (SW-620 colon) was 2.71 µM, the TGI (SW-620 colon) was 11.6 µM and the GI50 (T-47D breast) was 2.67 µM. The TGI (T-47D breast) was 17 µM, the GI50 (K-562 leukemia) was 2.51 µM and the TGI (K-562 leukemia) was > 100 µM. For the same molecule, the GI50 (RXF 393 renal) was 2 µM, the TGI (RXF 393 renal) was 3.9 µM and the GI50 (COLO 205 colon) was 2.25 µM. The TGI (COLO 205 colon) was 4.44 µM, the GI50 (786-0 renal) was 3.21 µM and the TGI (786-0 renal) was 12.2 µM. It also gave a GI50 (SF-539 CNS) of 1.79 µM, a TGI (SF-539 CNS) of 7.5 µM and a GI50 (MDA-MB-231 breast) of 2.73 µM. The TGI (MDA-MB-231 breast) was 11.7 µM, the GI50 (HT29 colon) was 3.26 µM and the TGI (HT29 colon) was 13.7 µM. For the same molecule, the GI50 (U251 CNS) was 1.71 µM, the TGI (U251 CNS) was 7.81 µM and the GI50 (UACC-62 melanoma) was 1.18 µM. It also gave a TGI (UACC-62 melanoma) of 3.54 µM, a GI50 (IGROV1 ovarian) of 2.08 µM and a TGI (IGROV1 ovarian) of 10.3 µM. The GI50 (NCI-H23 lung) was 1.63 µM, the TGI (NCI-H23 lung) was 4.96 µM and the GI50 (SN12C renal) was 2.74 µM. For the same molecule, the TGI (SN12C renal) was 12.2 µM, the GI50 (OVCAR-3 ovarian) was 2.45 µM and the TGI (OVCAR-3 ovarian) was 10.1 µM. The GI50 (OVCAR-4 ovarian) was 3.63 µM, the TGI (OVCAR-4 ovarian) was 21.1 µM and the GI50 (MCF7 breast) was 0.579 µM. The TGI (MCF7 breast) was 5.72 µM, the GI50 (ACHN renal) was 2.78 µM and the TGI (ACHN renal) was 10.4 µM. The GI50 (SF-268 CNS) was 2.46 µM, the TGI (SF-268 CNS) was 14.5 µM and the GI50 (DU-145 prostate) was 1.45 µM. It also gave a TGI (DU-145 prostate) of 3.32 µM, a GI50 (HCT-15 colon) of 1.11 µM and a TGI (HCT-15 colon) of 4.04 µM. The GI50 (A498 renal) was 12.4 µM, the TGI (A498 renal) was 25 µM and the GI50 (NCI-H522 lung) was 1.96 µM. For the same molecule, the TGI (NCI-H522 lung) was 5.65 µM, the GI50 (PC-3 prostate) was 2.68 µM and the TGI (PC-3 prostate) was 12.8 µM. The GI50 (NCI/ADR-RES ovarian) was 2.66 µM, the TGI (NCI/ADR-RES ovarian) was 37.7 µM and the GI50 (SNB-19 CNS) was 1.81 µM. For the same molecule, the TGI (SNB-19 CNS) was 5.54 µM, the GI50 (SK-MEL-2 melanoma) was 4.44 µM and the TGI (SK-MEL-2 melanoma) was 19.1 µM. The GI50 (BT-549 breast) was 2 µM, the TGI (BT-549 breast) was 11.9 µM and the GI50 (OVCAR-8 ovarian) was 3.78 µM. The TGI (OVCAR-8 ovarian) was 17.9 µM.
